According to patent US20240279602A1, “METHOD FOR PRODUCING CEREBRAL CORTICAL CELL PREPARATION DERIVED FROM HUMAN PLURIPOTENT STEM CELLS” (Kyoto University, priority 2021, published 2024):

System: human iPS cells (S2WCB1 strain, S2WCB3 strain)
Assay: Efficiency of cerebral organoid formation after step (1) maintenance culture and induction of differentiation
Format: cell-based
Set-up: Efficiency of cerebral organoid formation (%): concentration or dose not given beside the values
Conditions: for Efficiency (%) of cerebral organoid formation: -Day 1 to Day 0, evaluated Day 35
Protocol: Step (1) and step (2) were performed according to a scheme illustrated in FIG. 3 or FIG. 5. Maintenance culture of human iPS cells (S2WCB1 strain, S2WCB3 strain) was performed in StemFit culture medium on a 6-well plate coated with iMatrix-511 (feeder-free).
The culture medium was exchanged with: • (1) a culture medium obtained by adding 5 μM SB431542 to StemFit culture medium without solution C (i.e., a bFGF-free culture medium) (FIG. 3); or • (2) Essential 6 culture medium (i.e., a bFGF-free, TGFβ-free culture medium) (FIG. 5), • and adhesion culture was performed for 1 day.
Step (2a) Induction of differentiation into neural cells was performed in a serum-free culture medium by using a method by Sakaguchi et al. (Stem Cell Reports, 13:458-473, 2019. doi: 10.1016/j.stemcr.2019.05.029.). Specifically, human iPS cells cultured in step (1) were dispersed into single cells by enzymatic treatment. The human iPS cells dispersed into single cells were seeded on a non-cell-adhesive 96-well culture plate (PrimeSurface 96 V-bottom plate, manufactured by Sumitomo Bakelite Co., Ltd.) (9,000 cells/well/100 μL), and subjected to suspension culture with Glasgow MEM (GMEM; Thermo Fisher Scientific Inc.) culture medium supplemented with 0.1 mM non-essential amino acids, 1 mM pyruvate, 0.1 mM 2-mercaptoethanol, 20% (v/v) KnockOut (TM) serum replacement, 100 U/mL penicillin, and 100 μg/ml streptomycin (hereinafter, also referred to as 20GMK) with further addition of 5 μM SB431542 (TGFβ signaling inhibitor; Tocris Bioscience) and 3 μM IWR1e (Wnt signaling inhibitor; Calbiochem), at 37° C. under 5% CO2 for 18 days. Culture medium exchange was performed every 3 days. Y-27632 was added to reach 50 μM on Day 0, and not added in the subsequent culture medium exchanges. Through the culture, cell aggregates were eventually obtained.
Step (2b) On Day 18, the cell aggregates obtained were transferred into a 90-mm dish, and subjected to shaking culture with an Orbital Shaker in DMEM/F12/GlutaMAX culture medium supplemented with 1×N2 supplement (Thermo Fisher Scientific Inc.), a chemically defined lipid concentrate (Invitrogen), 0.25 mg/mL fungizone (Gibco), 1% penicillin/streptomycin, and 0.1% amphotericin B at 37° C. under 20% 02 and 5% CO2 from Day 35 to Day 42. Culture medium exchange was performed every 3 to 4 days.
Efficiency (%) of cerebral organoid formation was calculated by the following expression.
In step (1) of the scheme in FIG. 3, culture was performed with a culture medium supplemented with any additive below during a period of −Day 1 to Day 0, induction of differentiation into neural cells was performed on Day 0, and the efficiencies of cerebral organoid formation were evaluated on Day 35. […] In FIG. 7, “None” indicates the absence of an additive.
Under the experimental system with (1) “bFGF-free-and-SB431542-supplemented culture medium”, which was obtained by adding 5 μM SB431542 to StemFit culture medium without solution C, in Example 1, periods for culture of iPS cells with “bFGF-free-and-SB431542-supplemented culture medium” were set as in a table below.

[1] = step (1) in bFGF-containing culture medium (StemFit with solution C)
[2] = step (1) in bFGF-free culture medium (StemFit without solution C)

SMILES | structure of cell culture on Day 35 (immunostaining) (additive in bFGF-free culture medium in step (1) (Exp. F)) | Efficiency (%) of cerebral organoid formation [1] | Efficiency (%) of cerebral organoid formation [2] | Efficiency of cerebral organoid formation (%) (step (1) in Essential 6 (E6) culture medium supplemented with SB431542) | Efficiency (%) of cerebral organoid formation (step (1) in bFGF-containing culture medium (StemFit with solution C), listed as SB-431542)
O=C(Nc1cccc2cccnc12)c1ccc(N2C(=O)[C@@H]3[C@H](C2=O)[C@@H]2C=C[C@H]3C2)cc1 [IWR1e, 4-[(3aR,4S,7R,7aS)-1,3,3a,4,7,7a-hexahydro-1,3-dioxo-4,7-methano-2H-isoindol-2-yl]-N-8-quinolinyl-benzamide] | no cerebral cortex-like structure was formed | <1% | <5% |  | 
c1ccc2c(-c3cnn4cc(-c5ccc(N6CCNCC6)cc5)cnc34)ccnc2c1 [LDN-193189] |  |  | <5% |  | 
NC(=O)c1ccc(-c2nc(-c3ccc4c(c3)OCO4)c(-c3ccccn3)[nH]2)cc1 [SB431542, 4-[4-(1,3-benzodioxol-5-yl)-5-(2-pyridinyl)-1H-imidazol-2-yl]-benzamide] |  | less than 5% | high efficiency | 56.9% | <5%
